Source: PubChem BioAssay (NCI)
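In this assay, cells in 96-well plates receive the compound at five concentrations for 48 hours. Endpoints are linearly interpolated between the surrounding concentrations. The concentration for full growth arrest is given as TGI.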

How the values were obtained:
Test in all cases: DTP human tumour cell line panel, 48 h
SF-295 CNS = system: SF-295 CNS
A549 NSCLC = system: A549 NSCLC
MDA-MB-435 = system: MDA-MB-435
OVCAR-5 ovarian = system: OVCAR-5 ovarian
RPMI-8226 leukemia = system: RPMI-8226 leukemia
HOP-92 NSCLC = system: HOP-92 NSCLC
SN12C renal = system: SN12C renal
CAKI-1 renal = system: CAKI-1 renal
KM20L2 colon = system: KM20L2 colon
KM12 colon = system: KM12 colon
U251 CNS = system: U251 CNS
MDA-MB-231 breast = system: MDA-MB-231 breast
BT-549 breast = system: BT-549 breast
OVCAR-8 ovarian = system: OVCAR-8 ovarian
M14 melanoma = system: M14 melanoma
SNB-19 CNS = system: SNB-19 CNS
SK-OV-3 ovarian = system: SK-OV-3 ovarian
NCI/ADR-RES ovarian = system: NCI/ADR-RES ovarian
M19-MEL melanoma = system: M19-MEL melanoma
NCI-H23 lung = system: NCI-H23 lung
IGROV1 ovarian = system: IGROV1 ovarian
DMS 114 small cell lung = system: DMS 114 small cell lung
MCF7 breast = system: MCF7 breast
HOP-62 NSCLC = system: HOP-62 NSCLC
CCRF-CEM leukemia = system: CCRF-CEM leukemia
NCI-H460 lung = system: NCI-H460 lung
HT29 colon = system: HT29 colon
SNB-78 CNS = system: SNB-78 CNS
TK-10 renal = system: TK-10 renal
T-47D breast = system: T-47D breast
SK-MEL-5 melanoma = system: SK-MEL-5 melanoma
LXFL 529 NSCLC = system: LXFL 529 NSCLC
DU-145 prostate = system: DU-145 prostate
RXF 393 renal = system: RXF 393 renal
K-562 leukemia = system: K-562 leukemia
SR leukemia = system: SR leukemia
LOX IMVI melanoma = system: LOX IMVI melanoma
HL-60(TB) leukemia = system: HL-60(TB) leukemia
MDA-N = system: MDA-N
HCT-116 colon = system: HCT-116 colon
NCI-H226 lung = system: NCI-H226 lung
786-0 renal = system: 786-0 renal
DMS 273 small cell lung = system: DMS 273 small cell lung
ACHN renal = system: ACHN renal
MALME-3M melanoma = system: MALME-3M melanoma
SF-268 CNS = system: SF-268 CNS
HCT-15 colon = system: HCT-15 colon
SNB-75 CNS = system: SNB-75 CNS
SF-539 CNS = system: SF-539 CNS
OVCAR-3 ovarian = system: OVCAR-3 ovarian
PC-3 prostate = system: PC-3 prostate
NCI-H522 lung = system: NCI-H522 lung
OVCAR-4 ovarian = system: OVCAR-4 ovarian
SK-MEL-28 melanoma = system: SK-MEL-28 melanoma
SW-620 colon = system: SW-620 colon
A498 renal = system: A498 renal
MOLT-4 leukemia = system: MOLT-4 leukemia
UO-31 renal = system: UO-31 renal
COLO 205 colon = system: COLO 205 colon
UACC-62 melanoma = system: UACC-62 melanoma
UACC-257 melanoma = system: UACC-257 melanoma
HCC-2998 colon = system: HCC-2998 colon
SK-MEL-2 melanoma = system: SK-MEL-2 melanoma
EKVX NSCLC = system: EKVX NSCLC

Measured: TGI

CC(C)Cn1cnc2c(Sc3c([N+](=O)[O-])ncn3C)nc(N)nc21
> 75 µM: UO-31 renal
> 57.4 µM: OVCAR-3 ovarian
> 62.9 µM: COLO 205 colon
36.9 µM: HOP-92 NSCLC
> 59.8 µM: MALME-3M melanoma
81.9 µM: SK-MEL-2 melanoma
89.1 µM: NCI-H522 lung
> 100 µM: all other assays above
